Measured values reported in US12202808B2, “Substituted antivirals for treating coronavirus infection” (Erasmus University Medical Center Rotterdam, priority 2021, dated 2025).
Like-named read-outs stand apart in the source and are kept apart here.

Key:
SARS-CoV-2 [1] = type: cell-based; conditions: bronchiolar organoid-derived cultures, MOI 0.1, 2-72 h p.i., most pronounced at 72 h p.i.
[2] = test system: Bronchiolar organoid-derived cultures; type: cell-based, human
SARS-CoV-2 [3] = type: cell-based; conditions: bronchioalveolar organoid-derived cultures, 10 μM, MOI 0.1, 2-72 h p.i.

CO[C@H]1CN(C)C(=O)c2cc(NC(=O)NC(C)C)ccc2OC[C@H](C)N(Cc2ccc(-c3ccccn3)cc2)C[C@@H]1C [Bafcilin1]
inhibition of SARS-CoV-2 replication as compared to the DMSO control (SARS-CoV-2 [1]; 1 μM): inhibited SARS-CoV-2 replication
inhibition of SARS-CoV-2 replication as compared to the DMSO control (SARS-CoV-2 [1]; 10 μM): inhibited SARS-CoV-2 replication
GSEA (Enrichr, COVID-19 Related Gene Sets) of treatment affected genes ([2]; 1 μM, 10 μM and common between both treatments): significant enrichment of genes upregulated upon SARS-CoV-2 infection
number of genes affected (differentially expressed) as compared to DMSO ([2]; 1 μM, 24 h treatment): 653 genes
Enrichr analysis of genes downregulated by treatment ([2]; 10 μM): enriched for genes upregulated upon SARS-CoV-2 or SARS-CoV-1 infection
Enrichr analysis of genes upregulated by treatment ([2]; 10 μM): enriched for genes downregulated upon SARS-CoV-2 or MERS-CoV infection
number of genes differentially expressed in the same direction in both concentration groups ([2]; common to 1 μM and 10 μM, 24 h treatment): 437 genes
inhibition of SARS-CoV-2 replication (SARS-CoV-2 [3]): inhibited SARS-CoV-2 replication
